Data set [1] has as its system ovulation in female rats. The data set can be described thus: Anti-ovulatory activity (AOA) in vivo assay in rats. On the set-up: species or system rat. The following applies: for AO activity (AOA), in words: rat, in vivo. In short, it runs like this: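 Female rats dosed on proestrus day with test peptide dissolved in 0.1% DMSO. Read-out is the number of rats that ovulate; antagonist activity is defined as blocking ovulation in at least 50% of treated rats at a dose of 5 μg per rat.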

Data set [2] concerns rat mast cells. Description: Histamine release assay, rat mast cells. Here is the method: The term “histamine-releasing activity”, as used herein, refers to the tendency of a compound to release histamine when administered to a subject. The histamine-releasing activity of a compound can be measured with an in vitro assay (described in more detail, infra). […] Histamine-releasing activity was assayed by the method described in U.S. Pat. No. 4,851,385 to Roeske. Briefly, a suspension of rat mast cells was added to increasing concentrations of an LHRH antagonist peptide and incubated for 15 minutes at 37° C. The buffer contained 25 mM PIPES, pH 7.4, NaCl (119 mM), KCl (5 mM), NaOH (40 mM) glucose (5.6 mM), CaCl2 (1 mM) and 0.1% bovine serum albumin.

Data set [3] deals with ovulation in female rats. The data set can be described thus: Anti-ovulatory activity (AOA) in vivo assay in rats. The following applies: dose 0.5 μg per rat.
The conditions of data set [4]: cited from earlier work.
The test system of data set [5] is plasma testosterone. The data set can be described thus: Suppression of plasma testosterone, single subcutaneous injection. Conditions: adult male rats. Format: in vivo, rat. As to the method:
The ability of an LHRH antagonist of the invention to suppress plasma testosterone levels was examined in adult male rats. In one experiment, a single injection of LHRH antagonist was administered subcutaneously at doses of 300 or 1000 μg/kg. […] Testosterone levels returned to normal by 24 hours after the 300 μg/kg dose, but not until 72 hours after the 1000 μg/kg dose.

The subject of data set [6] is plasma testosterone. Description: Suppression of plasma testosterone, eight doses every three hours (FIG. 1). In kind it is in vivo, rat. Conditions: adult male rats. Here is the method:
FIG. 1 is a graph depicting plasma testosterone levels (in ng/ml) in adult male rats administered eight subcutaneous injections of the LHRH antagonist #3827, one injection every three hours, at doses of 1, 10 or 100 μg/kg.
In another experiment, the LHRH antagonist #3827 was administered in eight […] doses of 1, 10 or 100 μg/kg, each every three hours, corresponding respectively to 8, 80 or 800 μg/kg/day. The results are shown graphically in FIG. 1.

In data set [7] the test system is plasma testosterone. Description: Suppression of plasma testosterone, continuous subcutaneous infusion via osmotic pump (FIG. 2, FIG. 3). In kind it is in vivo, rat. As to the method:
FIG. 2 is a graph depicting plasma testosterone levels (in ng/ml) in adult male rats subcutaneously administered the LHRH antagonist #3827 via an osmotic pump. Doses were either 300 μg/kg/day for two weeks, followed by 15 μg/kg/day for an additional two weeks or 1000 μg/kg/day for two weeks, followed by 5, 15 or 50 μg/kg/day for an additional two weeks.
FIG. 3 is a graph depicting the plasma testosterone levels (in ng/ml) in adult male rats subcutaneously administered the LHRH antagonist #3827 via an osmotic pump. Doses were either 30 μg/kg/day for two weeks, followed by 5 μg/kg/day for an additional two weeks, 100 μg/kg/day for two weeks, followed by 5 μg/kg/day for an additional two weeks. or 300 μg/kg/day for two weeks, followed by 0 or 5 μg/kg/day for an additional two weeks.
In another experiment, continuous subcutaneous infusion of the LHRH antagonist # 3827 was achieved through use of an osmotic pump. Doses of 300 or 1000 μg/kg/day (“High Dose”) were administered subcutaneously for two weeks via Alzet osmotic minipumps in each of five male Sprague-Dawley rats. The animals that received 1000 μg/kg/day were then maintained for an additional two weeks with 5, 15 or 50 μg/kg/day (“Low Dose”) before the pumps were removed completely. The results are shown graphically in FIG. 2.

Where [8] appears, read: rat mast cells, 15 minutes at 37° C.
Setting [9] is: follow up study, FIG. 3, osmotic pump s.c.
Setting [10] is: footnote a: run with Nal arg reference 0.11.
Where [11] appears, read: footnote b: run with Nal arg reference 0.14.

As to “Ac-D-Nal^1, 4-Cl-D-Phe^2, D-Pal^3, D-Met(S^+CH3)^6, D-Ala^10-LHRH.2TFA [Compound 3967]”, the “AO activity (AOA): rats which ovulate / rats treated” value in data set [1] (dose 0.25 μg per rat) is on record as 7/8@0.25; in data set [3] it was 1/8@0.5. In addition, the “Histamine release ED50” value in data set [2] (footnote e: run with Nal arg reference 0.1) was found to be 0.38 µg/mL; in data set [2] (footnote f: run with Nal arg reference 0.02), 0.15 µg/mL.
For the compound `Oc1ccc2ccccc2c1` [β-naphthol], the “measured log P (octanol/water)” value in data set [4] is on record as 2.84.
“Ac-D-Nal^1, 4-Cl-D-Phe^2, D-Pal^3, D-Arg^6, Met(S^+Me)^8, D-Ala^10-LHRH.2TFA [Compound 3983]”: the “AO activity (AOA): rats which ovulate / rats treated” value is given as 0/8@1.00 in data set [1] (dose 1 μg per rat) and 8/8@0.5 in data set [3]. The “AO activity (AOA), in words” value in data set [1] was “high AOA”. The “Histamine release ED50” value in data set [2] (footnote g: run with Nal arg reference 0.1) came to 5.35 µg/mL; in data set [2] (footnote h: run with Nal arg reference 0.02) it was 1.32 µg/mL.
As to `c1ccc2ccccc2c1` [naphthalene], the “measured log P (octanol/water)” value in data set [4] was 3.45.
With “Ac-D-Nal^1, 4-Cl-D-Phe^2, D-Pal^3, D-Pal(Bzl)^6, Lys(iPr)^8, D-Ala^10-LHRH.TFA [Compound 3429]”, the entries for the “AO activity (AOA): rats which ovulate / rats treated” value in data set [1] (dose 1 μg per rat) and in data set [3] were 0/8@1 μg and 4/8@0.5 μg, respectively. Besides, in data set [2] (setting [8]), the “Histamine release ED50” value stood at 6.0 µg/mL.
Regarding “Ac-D-Nal^1, 4-Cl-D-Phe^2, D-Pal^3, N-Me-Tyr^5, D-Asn^6, Lys(iPr)^8, D-Ala^10-LHRH.TFA [Compound 3827]”, the “AO activity (AOA): rats which ovulate / rats treated” value in data set [1] (dose 1 μg per rat) is given as 4/8@1.0. For the same compound, the “AO activity (AOA), in words” value in data set [1] was “moderate AO activity”. For the same compound, the “time until testosterone levels returned to normal” value in data set [5] (single s.c. 300 μg/kg) is at most 24 h; in data set [5] (single s.c. 1000 μg/kg), 72 h. Also, the plasma testosterone entry was “nearly undetectable levels” in data set [5] (single s.c. injection 300 or 1000 μg/kg, by 6 hours post-administration); “significant decrease” in data set [6] (eight doses of 1 μg/kg, every three hours (8 μg/kg/day)); “Castrate levels” in data set [6] (eight doses of 10 μg/kg, every three hours (80 μg/kg/day)). Also, the “castration during Low Dose maintenance” value in data set [7] (after High Dose two weeks, Low Dose pumps 5, 15 or 50 μg/kg/day, as low as 5 μg/kg/day) is given as “remained fully castrated”. In addition, the “recovery in plasma testosterone following completion of treatment” value in data set [7] (by maintenance dose) is listed as “dose dependent recovery”. The “dose achieving complete suppression of testosterone to castrate levels (as low as)” value in data set [7] (setting [9]) is at most 30 µg/kg/day. Moreover, the “dose maintaining castrate levels (as low as)” value in data set [7] (setting [9]) was at most 5 µg/kg/day. The “time to castrate levels of testosterone” value in data set [7] (male Sprague-Dawley rats, osmotic pump s.c., initial dose 300 or 1000 μg/kg/day) is at most 7 days. Moreover, the “castration response during chronic treatment” value in data set [7] (osmotic pump s.c.) is listed as “no apparent “castration response””. Further, in data set [7] (rat, in vivo), the “recovery of testosterone levels following pump removal” value is on record as “complete within two weeks”.
For the compound “Ac-D-Nal^1, 4-Cl-D-Phe^2, D-Pal^3, 4-Cl-Phe^5, D-Pal(iPr)^6, Lys(iPr)^8, D-Ala^10-LHRH.2TFA [Compound 3851]”, the entries for the “AO activity (AOA): rats which ovulate / rats treated” value in data set [1] (dose 1 μg per rat) and in data set [3] were 0/8@1.0 and 6/8@0.5, respectively. In data set [1], the “AO activity (AOA), in words” value was “unexpectedly active”. For the same compound, the “Histamine release ED50” value in data set [2] (setting [10]) stood at 4.1 µg/mL; in data set [2] (setting [11]), 5.4 µg/mL.
On to “Ac-D-Nal^1, 4-Cl-D-Phe^2, D-Pal^3, D-Lys(Glc)^6-Lys(iPr)^8, D-Ala^10-LHRH.TFA [Compound 3423A]”, for which the “AO activity (AOA): rats which ovulate / rats treated” value is reported as 2/10@1 μg in data set [1] (dose 1 μg per rat), 0/10@2 μg in data set [1] (dose 2 μg per rat) and 7/10@0.5 μg in data set [3]. In addition, the “Histamine release ED50” value in data set [2] (setting [8]) is 52 µg/mL.
For “Ac-D-Nal^1, 4-Cl-D-Phe^2, D-Pal^3, D-Arg^6, Orn(COCH2S^+Me2)^8, D-Ala^10, LHRH.2TFA [Compound 3985]”, the “AO activity (AOA): rats which ovulate / rats treated” value is 0/8@1.00 in data set [1] (dose 1 μg per rat) and 8/8@0.5 in data set [3]. The entries for the “Histamine release ED50” value in data set [2] (setting [10]) and in data set [2] (setting [11]) were 4.4 µg/mL and 3.86 µg/mL, respectively.
